{"source": "paper PMC11905336", "about": "“Pyrrole‐Tethered Bisbenzoxazole Derivatives: Apoptosis‐Inducing Agents Targeting Breast Cancer Cells” (Chemical Biology & Drug Design, 2025)", "key": {"[1]": {"test_system": "HeLa and HepG2 cell lines", "design": "method as in Srivastava et al. [2015]", "conditions": "ref Srivastava et al. [2015]; cited from earlier work"}, "HDFa cells": {"test_system": "HDFa cells", "test": "Apoptosis/necrosis by flow cytometry, Annexin V/propidium iodide, HDFa", "format": "cell-based, human", "conditions": "48 h, same concentrations as in MCF-7, p < 0.05", "procedure": "Subsequently, flow cytometry analysis was conducted on HDFa cells.\n(§1) The assessment of apoptosis through flow cytometry is a valuable method for obtaining quantitative results to determine the levels of apoptosis and necrosis in cells. In our study, the 48th‐hour apoptosis levels of three synthases with the lowest IC50 values (PTB derivatives B8, B14, and B18) were evaluated. To assess apoptosis levels, MCF‐7 cells and healthy fibroblast cells were incubated with these synthases for 48 h. After this incubation period, the cells were treated with Annexin‐V APC and PE propidium iodide (PI) dyes to examine apoptosis levels. Then, to examine the levels of apoptosis, the cells were incubated at a concentration of 2 × 10^5 cells/mL with 5 μL Annexin‐V APC and 10 μL PI dyes in 100 μL Binding buffer for 15 min at room temperature. Samples were then washed twice in PBS, and the BD FACS ARIA III flow cytometry device was used to determine the percentage of apoptotic cells. (Ayaz et al. [2022])."}, "MCF‐7 cell lines": {"test_system": "MCF‐7 cell lines", "test": "MTT assay, cytotoxicity on MCF-7 cells", "format": "cell-based, human", "conditions": "for IC50: Homo sapiens, MTT; for IC50 in MCF-7 compared to tamoxifen (fold lower): MCF-7, MTT", "procedure": "The cytotoxic effects of PTB derivatives on MCF‐7 breast cancer cells were evaluated using the MTT assay at various concentrations (100 nM, 1 μM, 10 μM, 50 μM, and 100 μM).\n(§2) The human dermal fibroblast (HDFa) and human breast cancer cells (MCF‐7) were obtained from the American Type Culture Collection (ATCC; Manassas, VA, USA). Cells were cultured in RPMI medium (MCF‐7) and DMEM medium (HDFa) was supplemented with 10% FBS, 1% penicillin–streptomycin, 1% amphotericin, and 2.5% L‐glutamine at 37°C in a 5% CO2 incubator.\nMTT Method. The MTT method is used to detect and quantify living organisms cultured with the method colorimetrically. This method relies on intact mitochondria cleaving the tetrazolium ring of the MTT dye. The MTT substance is absorbed and reduced to a colorful, water‐insoluble formazan by a mitochondria‐dependent reaction. Cell viability is measured based on the MTT reduction property, and the density of dye obtained from MTT analysis indicates the number of viable cells. In this study, cell viability was assessed using the MTT (0.5 mg/mL) solution that was added to each well. […] After adding properties to cultures, they were kept at 37°C for 24 h and overnight. Then, at 48 and 72 h after applying the molecules, 10 μL of MTT was added to each well and incubated under similar conditions for 4 h. Absorbance spectrophotometry was performed at a wavelength of 570 nm using the IC50 = [(control absorbents‐sample absorbents)/control absorbents] × 100 calculation method (Khorsandi et al. [2017])."}, "HDFa cell lines": {"test_system": "HDFa cell lines", "test": "Cytotoxicity on healthy dermal fibroblasts (MTT / xCELLigence real-time cell analysis)", "format": "cell-based", "conditions": "Homo sapiens", "procedure": "The cytotoxicity of these derivatives was also assessed in dermal fibroblast cells using xCELLigence analysis as detailed in the Supporting Information.\nas §2\nxCELLigence Real‐Time Cell Analysis. The xCELLigence system (Real‐Time Cell Analyzer (RTCA) Dual Plate (DP) (Roche Diagnostics GmbH, Penzberg)) was used for real‐time monitoring of cell viability without the need for labeling. A total of 1 × 10^4 HDFa cells were seeded into each well of the E‐plate, and the cell proliferation curve was monitored for 24 h. […] The Cell Index (CI) value was automatically measured every hour for each well using RTCA Software (version 1.2.1) (Yetkin et al. [2021]; Yıldırım et al. [2022])."}, "MCF‐7 cells [2]": {"test_system": "MCF‐7 cells", "test": "Apoptosis/necrosis by flow cytometry, Annexin V/propidium iodide, MCF-7", "format": "cell-based, human", "conditions": "MCF-7, 48 h, p < 0.05", "procedure": "Flow cytometry analysis was performed to evaluate the percentages of apoptosis for these compounds compared to tamoxifen. MCF‐7 cell suspensions treated with each compound for 48 h were stained using an apoptosis detection kit and subsequently analyzed using flow cytometry.\nas §1"}, "MCF‐7 cells [3]": {"test_system": "MCF‐7 cells", "test": "Cell cycle phases by flow cytometry with propidium iodide, MCF-7", "format": "cell-based, human", "conditions": "for Change of G2 phase averages vs control: MCF-7, 48 h at IC50; for Change of G1 phase vs control / Change of S phase vs control: MCF-7, 48 h at IC50, p < 0.05", "procedure": "In the flow cytometry analysis, cell cycle kits facilitated the removal of cytoskeletal and nuclear proteins by disrupting lipid components of the cell membrane using detergents. […] Consequently, we were able to identify abnormal DNA distributions and cell cycle phase profiles in the MCF‐7 breast cancer cell line.\nMCF‐7 cells were seeded in a 6‐well plate at a density of 1 × 10^6 cells and incubated for 24 h. […] MCF‐7 cells were then trypsinized, stained, and analyzed using a BD FACSAria III flow cytometer (BD Biosciences, Bedford, MA, USA) with FACS Diva Software and ModFit LT.\nThe cell cycle kit (MCE USA‐HY‐K1071‐50 T) works on the principle of dissolving the lipids in the cell membrane with the help of detergents. This kit was used to identify cells with abnormal DNA and cell cycle phase distributions in a breast cancer cell line. It was analyzed by removing the cytoskeleton and nuclear proteins with the help of trypsin and digesting the cellular RNA by enzymes. Cells were seeded at 1 × 10^6 in a 6‐well plate and incubated for 24 h. […] Cells were removed by adding trypsin to adherent cells. They were centrifuged at 1000 g for 3–5 min at 4°C, and then the supernatant was discarded. One milliliter of prechilled PBS was added to resuspend the cells, centrifuged at 1000 g for 3–5 min at 4°C, and detected via BD FACSAria III flow cytometer (BD Biosciences, Bedford, MA, USA). Percentage data were obtained using FACS Diva Software and ModFit LT (Şimşek et al. [2020])."}, "[4]": {"test_system": "A549, A498, HeLa, and HepG2", "design": "method as in Ersan et al. [2020]", "conditions": "ref Ersan et al. [2020], cited from earlier work"}, "Vero healthy cell line": {"test_system": "Vero healthy cell line", "design": "method as in Ersan et al. [2020]", "conditions": "ref Ersan et al. [2020]; cited from earlier work"}, "MDA‐MB‐231": {"test_system": "MDA‐MB‐231", "design": "method as in Desai et al. [2020]", "conditions": "ref Desai et al. [2020]; cited from earlier work"}, "MCF‐7": {"test_system": "MCF‐7", "design": "method as in Desai et al. [2020]", "conditions": "ref Desai et al. [2020]; cited from earlier work"}, "[5]": {"test_system": "A549 and MCF‐7 cell lines", "design": "method as in Belal and Abdelgawad [2017]", "conditions": "ref Belal and Abdelgawad [2017]; cited from earlier work"}, "MCF‐7 cell line": {"test_system": "MCF‐7 cell line", "design": "method as in earlier work", "conditions": "MCF-7, XTT assay, ref Kuzu, Hepokur, Alagoz, et al. [2022], Turkmenoglu; cited from earlier work"}, "MCF‐7 cells [6]": {"test_system": "MCF‐7 cells", "design": "method as in earlier work", "conditions": "MCF-7, cell cycle analysis, ref Kuzu, Hepokur, Alagoz, et al. [2022], Turkmenoglu; cited from earlier work"}, "[7]": {"conditions": "MCF7, read-out: IC50 (μM) for MCF‐7 cell lines, 48 h"}, "[8]": {"conditions": "MCF7, 24 h, read-out: IC50 (μM) for MCF‐7 cell lines, 24 h"}, "[9]": {"conditions": "MCF7, 72 h, read-out: IC50 (μM) for MCF‐7 cell lines, 72 h"}, "[10]": {"conditions": "24 h, values greater than 100 not calculated, read-out: IC50 (μM) for HDFa cell lines, 24 h"}, "[11]": {"conditions": "72 h, values greater than 100 not calculated, read-out: IC50 (μM) for HDFa cell lines, 72 h"}, "[12]": {"conditions": "read-out: IC50 (μM) for HDFa cell lines, 48 h, values greater than 100 not calculated"}}, "note": "Like-named read-outs stand apart in the source and are kept apart here."}
{"smiles": "c1ccc(Cn2nnc(-c3ccccc3)c2-c2nc3ccccc3o2)cc1", "note": "[Compound 10]", "values": [{"measurement": "IC50", "setting": "[1]", "value": "5 to 30", "unit": "µg/mL"}]}
{"smiles": "COC(=O)c1ccc2nc(-c3ccc(-c4nc5cc(OC)ccc5o4)[nH]3)oc2c1", "note": "[Compound B18, Methyl 2‐(5‐(5‐Methoxybenzo[d]Oxazol‐2‐Yl)‐1H‐Pyrrol‐2‐Yl)benzo[d]Oxazole‐6‐Carboxylate]", "values": [{"measurement": "Average number of viable cells vs control", "setting": "HDFa cells", "value": "significant decrease"}, {"measurement": "Percentage of necrosis vs control", "setting": "HDFa cells", "value": "notable increase"}, {"measurement": "IC50", "setting": "MCF‐7 cell lines; [7]", "value": "1.3 ± 0.98", "unit": "µM"}, {"measurement": "IC50", "setting": "MCF‐7 cell lines; [8]", "value": "3.53 ± 1.35", "unit": "µM"}, {"measurement": "IC50", "setting": "MCF‐7 cell lines; [9]", "value": "2.69 ± 0.73", "unit": "µM"}, {"measurement": "IC50 in MCF-7 compared to tamoxifen (fold lower)", "setting": "MCF‐7 cell lines", "value": "approximately 8 fold"}, {"measurement": "IC50", "setting": "HDFa cell lines; [10]", "value": "98.3 ± 1.58", "unit": "µM"}, {"measurement": "IC50", "setting": "HDFa cell lines; [11]", "value": "≥ 100", "unit": "µM"}, {"measurement": "IC50", "setting": "HDFa cell lines; [12]", "value": "≥ 100", "unit": "µM"}, {"measurement": "Secondary apoptosis vs control", "setting": "MCF‐7 cells [2]", "value": "significantly elevated"}, {"measurement": "Change of G2 phase averages vs control", "setting": "MCF‐7 cells [3]", "value": "No significant changes"}, {"measurement": "Change of G1 phase vs control", "setting": "MCF‐7 cells [3]", "value": "significant increase"}, {"measurement": "Change of S phase vs control", "setting": "MCF‐7 cells [3]", "value": "corresponding decrease"}]}
{"smiles": "c1ccc2oc(CNCc3nc4ccccc4o3)nc2c1", "note": "[Compound 16]", "values": [{"measurement": "IC50", "setting": "[4]; range across A549, A498, HeLa, HepG2", "value": "0.56 to 2.24", "unit": "µM"}, {"measurement": "Selectivity for A549 lung cancer cell line compared to other tested cancer cell lines", "setting": "[4]", "value": "fourfold higher selectivity"}, {"measurement": "Cytotoxicity against Vero healthy cell line", "setting": "Vero healthy cell line", "value": "minimal cytotoxicity"}]}
{"smiles": "c1ccc2nc(-c3nc4ccccc4o3)cnc2c1", "note": "[Compound 12]", "values": [{"measurement": "IC50", "setting": "MDA‐MB‐231", "value": 0.5, "unit": "µM"}, {"measurement": "IC50", "setting": "MCF‐7", "value": 0.53, "unit": "µM"}]}
{"smiles": "c1ccc(-c2cc(-c3nc4ccccc4o3)[nH]n2)cc1", "note": "[Compound 11]", "values": [{"measurement": "IC50", "setting": "[5]", "value": "0.12 to 0.19", "unit": "µM"}]}
{"smiles": "O=c1[nH]cc(F)c(=O)[nH]1", "note": "[5‐FU, 5‐fluorouracil]", "values": [{"measurement": "IC50", "setting": "MCF‐7 cell line", "value": 5.06, "unit": "µM"}]}
{"smiles": "COc1ccc2oc(C(=O)N3CCCCC3)nc2c1", "note": "[Compound 14]", "values": [{"measurement": "G0/G1 phase arrest", "setting": "MCF‐7 cells [6]", "value": 71.2, "unit": "%"}]}
{"smiles": "COC(=O)c1ccc2nc(-c3ccc(-c4nc5cc(C)ccc5o4)[nH]3)oc2c1", "note": "[Compound B14, Methyl 2‐(5‐(5‐Methylbenzo[d]Oxazol‐2‐Yl)‐1H‐Pyrrol‐2‐Yl)benzo[d]Oxazole‐6‐Carboxylate]", "values": [{"measurement": "IC50", "setting": "MCF‐7 cell lines; [7]", "value": "0.95 ± 1.01", "unit": "µM"}, {"measurement": "IC50", "setting": "MCF‐7 cell lines; [8]", "value": "3.28 ± 0.74", "unit": "µM"}, {"measurement": "IC50", "setting": "MCF‐7 cell lines; [9]", "value": "3.02 ± 2.18", "unit": "µM"}, {"measurement": "IC50 in MCF-7 compared to tamoxifen (fold lower)", "setting": "MCF‐7 cell lines", "value": "approximately 8 fold"}, {"measurement": "IC50", "setting": "HDFa cell lines; [10]", "value": "94.5 ± 1.37", "unit": "µM"}, {"measurement": "IC50", "setting": "HDFa cell lines; [11]", "value": "97.4 ± 2.83", "unit": "µM"}, {"measurement": "IC50", "setting": "HDFa cell lines; [12]", "value": "96.3 ± 1.38", "unit": "µM"}, {"measurement": "Necrosis percentage vs control", "setting": "MCF‐7 cells [2]", "value": "significant changes in all groups except for the B14 group"}, {"measurement": "Change of G2 phase averages vs control", "setting": "MCF‐7 cells [3]", "value": "No significant changes"}, {"measurement": "Change of G1 phase vs control", "setting": "MCF‐7 cells [3]", "value": "significant increase"}, {"measurement": "Change of S phase vs control", "setting": "MCF‐7 cells [3]", "value": "corresponding decrease"}]}
{"smiles": "CC/C(=C(\\c1ccccc1)c1ccc(OCCN(C)C)cc1)c1ccccc1", "note": "[Tamoxifen, reference compound]", "values": [{"measurement": "Average number of viable cells vs control", "setting": "HDFa cells", "value": "significant decrease"}, {"measurement": "Percentage of necrosis vs control", "setting": "HDFa cells", "value": "notable increase"}, {"measurement": "Secondary apoptosis vs control", "setting": "MCF‐7 cells [2]", "value": "significantly elevated"}, {"measurement": "Change of G2 phase averages vs control", "setting": "MCF‐7 cells [3]", "value": "No significant changes"}, {"measurement": "Change of G1 phase vs control", "setting": "MCF‐7 cells [3]", "value": "significant increase"}, {"measurement": "Change of S phase vs control", "setting": "MCF‐7 cells [3]", "value": "corresponding decrease"}]}
